Consider 20 compounds from patent publication US11001590B2, “Pyrazolopyrimidine derivatives” (BAYER ANIMAL HEALTH GMBH, priority 2016, dated 2021).

The test system of series [1] is Litomosoides sigmodontis third-stage larvae. The experiment in a line: In vitro assay 7: Litomosoides sigmodontis L3 (LTMOSI), motility. Conditions: 72 h, reduction of motility vs negative control, 72 h incubation.
In series [2] the target is C. elegans Slo-1a (Caenorhabditis elegans, UniProt Q95V25). The series is described as follows: In vitro assay 1: C. elegans Slo-1a, action at a recombinant C. elegans CHO cell line (membrane potential measurement).
Sequence of C. elegans Slo-1a (Q95V25 whole entry): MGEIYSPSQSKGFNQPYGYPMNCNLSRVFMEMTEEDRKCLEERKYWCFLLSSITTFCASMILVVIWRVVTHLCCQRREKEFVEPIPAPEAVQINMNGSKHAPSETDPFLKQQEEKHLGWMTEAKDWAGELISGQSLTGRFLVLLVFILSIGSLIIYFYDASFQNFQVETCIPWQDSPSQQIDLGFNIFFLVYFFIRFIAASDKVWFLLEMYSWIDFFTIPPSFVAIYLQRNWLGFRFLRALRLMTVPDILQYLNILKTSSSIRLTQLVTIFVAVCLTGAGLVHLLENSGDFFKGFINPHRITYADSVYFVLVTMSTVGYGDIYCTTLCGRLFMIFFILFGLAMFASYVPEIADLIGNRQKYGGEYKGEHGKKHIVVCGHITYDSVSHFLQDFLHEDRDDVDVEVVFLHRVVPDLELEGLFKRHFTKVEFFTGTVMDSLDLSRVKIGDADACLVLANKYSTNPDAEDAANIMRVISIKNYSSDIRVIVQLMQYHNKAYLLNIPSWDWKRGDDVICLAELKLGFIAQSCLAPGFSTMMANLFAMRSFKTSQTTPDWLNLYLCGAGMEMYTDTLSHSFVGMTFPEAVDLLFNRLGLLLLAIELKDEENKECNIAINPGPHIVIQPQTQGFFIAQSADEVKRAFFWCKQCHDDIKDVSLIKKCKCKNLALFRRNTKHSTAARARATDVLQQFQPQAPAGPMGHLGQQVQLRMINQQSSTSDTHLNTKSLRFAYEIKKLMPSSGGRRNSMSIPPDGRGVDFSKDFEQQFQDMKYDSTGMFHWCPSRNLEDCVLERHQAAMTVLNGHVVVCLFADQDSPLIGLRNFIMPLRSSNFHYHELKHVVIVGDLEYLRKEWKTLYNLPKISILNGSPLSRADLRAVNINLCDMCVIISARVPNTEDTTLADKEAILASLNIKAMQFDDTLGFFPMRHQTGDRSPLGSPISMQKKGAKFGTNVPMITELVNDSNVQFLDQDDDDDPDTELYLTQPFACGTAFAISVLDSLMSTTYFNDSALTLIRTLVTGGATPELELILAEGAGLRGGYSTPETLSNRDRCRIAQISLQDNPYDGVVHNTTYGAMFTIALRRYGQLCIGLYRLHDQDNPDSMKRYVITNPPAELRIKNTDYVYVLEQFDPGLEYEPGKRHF
Procedure: In Vitro Assay 1: C. Eleqans Slo-La—Action at a Recombinant C. elegans Cell Line
Cells were cultured at 37° C. and 5% CO2 in MEMalpha with Gutamax I (Invitrogen, Nr.: 32571), supplemented with 10% (v/v) heat inactivated fetal bovine serum (Invitrogen, Nr.: 10500), G418 (1 mg/ml, Invitrogen, Nr.: 10131). Cells were detached using Accutase (Sigma, Nr.: A6964).
Membrane Potential Measurements
Laboratory compound testing was performed on 384-well microtiter plates (MTPs, Greiner, Nr.: 781092). 8000 cells/well were plated onto 384-well MTPs and cultured for 20 to 24 hours at 37° C. and 5% CO2. After removal of the cell culture medium, the cells were washed once with tyrode (150 mM NaCl, 0.3 mM KCl, 2 mM CaCl2, 1 mM MgCl2, 0.8 mM NaH2PO4, 5 mM Glucose, 28 mM Hepes, pH 7.4) and then loaded with the voltage sensitive dye of the Membrane Potential Assay Kit diluted in tyrode for 1 h at room temperature.
After starting the measurement of fluorescence using a FLIPR Tetra (Molecular Devices, Exc. 510-545 nm, Emm. 565-625 nm), test compounds were added followed by the addition of KCl tyrode (final assay concentration: 70 mM KCl, 2 mM CaCl2, 1 mM MgCl2, 0.8 mM NaH2PO4, 5 mM Glucose, 28 mM Hepes, pH 7.4, including the voltage sensitive dye). The measurement was completed after 7 minutes.
Series [3] can be described thus: log P by HPLC on reversed phase columns (Method L0; [a] acidic, [b] neutral range).
Procedure: Calibration was done with straight-chain alkan-2-ones (with 3 to 16 carbon atoms) with known log P values (measurement of log P values using retention times with linear interpolation between successive alkanones). Lambda-max-values were determined using UV-spectra from 200 nm to 400 nm and the peak values of the chromatographic signals.
Series [4] deals with Dirofilaria immitis microfilariae. The series is described as follows: In vitro assay 3: Dirofilaria immitis microfilariae (DIROIM L1), motility. Conditions: 72 h, reduction of motility vs negative control, 72 h incubation.
In series [5] the test system is Cooperia curticei. The experiment in a line: In vitro assay 5: Cooperia curticei (COOPCU), larval mortality. Conditions: 120 h, read-out: activity (percentage of larval mortality).
Procedure: In Vitro Assay 5: Cooperia curticei (COOPCU)
Solvent: Dimethyl Sulfoxide
Approximately 40 nematode larvae (Cooperia curticei) are transferred into a test tube containing the compound solution.
After 5 days percentage of larval mortality is recorded. 100% efficacy means all larvae are killed; 0% efficacy means no larvae are killed.
Series [6] has as its system Dirofilaria immitis third-stage larvae. The series is described as follows: In vitro assay 4: Dirofilaria immitis (DIROIM L4), motility of larvae. Conditions: 72 h.
Series [7] concerns Nippostrongylus brasiliensis. The series is described as follows: In vitro assay 2: Nippostrongylus brasiliensis (NIPOBR), acetylcholine esterase readout. Conditions: adult worms, read-out: activity (reduction of AChE compared to negative control); for inhibition at 10 µg/mL: 10 μg/ml (10 ppm); for inhibition at 1 µg/mL: 1 μg/ml (1 ppm). The protocol:
In Vitro Assay 2: Nippostronqylus Brasiliensis (NIPOBR)
Adult Nippostrongylus brasiliensis were washed with saline buffer containing 100 U/ml penicillin, 0.1 mg/ml streptomycin and 2.5 μg/ml amphotericin B. Test compounds were dissolved in DMSO and worms were incubated in medium in a final concentration of 10 μg/ml (10 ppm) respectively 1 μg/ml (1 ppm). An aliquot of the medium was used to determine the acetylcholine esterase activity in comparison to a negative control. The principle of measuring acetylcholine esterase as readout for anthelmintic activity was described in Rapson et al (1986) and Rapson et al (1987).

Series [8] relates to Haemonchus contortus. The series is described as follows: In vitro assay 6: Haemonchus contortus (HAEMCO), larval mortality.
Procedure: In Vitro Assay 6: Haemonchus contortus (HAEMCO)
Solvent: dimethyl sulfoxide
Approximately 40 larvae of the red stomach worm (Haemonchus contortus) are transferred into a test tube containing compound solution.
After 5 days the percentage of larval mortality is recorded. 100% efficacy means all larvae are killed, 0% efficacy means no larvae are killed.
The mark [9] stands for this setting: Haemonchus contortus, 120 h, read-out: activity (percentage of larval mortality).

What is called EC50 is the concentration at which the effect is half-maximal. Broadly, the chromatographic logP is a lipophilicity value derived from retention on a column. By mortality is commonly meant the share of the test organisms that died. On to `Cc1nn2c(C(C)C)c(C(=O)N[C@H]3CCOc4ccccc43)cnc2c1-c1cccc(C(F)(F)F)c1` [Example 6], for which the EC50 in series [1] was less than 1 mg/L; in series [2], 12.6 nM; in series [4] it was less than 1 mg/L. In series [3], this compound displayed a chromatographic logP of 5.03. Further, the mortality at 20 ppm in series [5] is 80%.

With `COc1ccc(F)c(-c2c(C)nn3c(C(C)C)c(C(=O)N[C@H]4CCOc5ccccc54)cnc23)c1F` [Example 232], the EC50 is less than 0.1 mg/L in series [6], less than 0.1 mg/L in series [1], 5.01 nM in series [2] and less than 1 mg/L in series [4]. Further, the inhibition at 10 µg/mL in series [7] is more than 80%. In series [3], this compound came in with a chromatographic logP of 4.04. In series [5], the mortality at 20 ppm worked out at 80%.

Take `Cc1nn2c(C(C)C)c(C(=O)N[C@H]3CCOc4ccccc43)cnc2c1-c1cc(Cl)cc(C(F)(F)F)c1` [Example 240]: in series [7], the inhibition at 1 µg/mL is more than 80% and the inhibition at 10 µg/mL was more than 80%. Also, the concentration giving a half-maximal response (EC50) in series [2] is 5.01 nM. Also, the chromatographic logP in series [3] was determined as 5.65. The compound also came in with a concentration for a half-maximal effect (EC50) in series [4] of less than 1 mg/L. Moreover, the mortality at 20 ppm in series [5] was determined as 90%.

As to `COc1cc(-c2c(C)nn3c(C(C)C)c(C(=O)N[C@H]4CCOc5ccccc54)cnc23)ccc1F` [Example 244], the EC50 is less than 0.1 mg/L in series [6], less than 0.1 mg/L in series [1], 6.31 nM in series [2] and less than 1 mg/L in series [4]. The inhibition at 1 µg/mL in series [7] is more than 80%. Besides, the inhibition at 10 µg/mL in series [7] was more than 80%. This compound also registered a chromatographic logP in series [3] of 4.32. For the same compound, the mortality at 20 ppm in series [5] came out at 90%.

As for `Cc1nn2c(C(C)C)c(C(=O)N[C@H]3CCOc4ccccc43)cnc2c1-c1c(F)ccc(F)c1F` [Example 253], the EC50 was less than 0.1 mg/L in series [6], less than 0.1 mg/L in series [1], 1.26 nM in series [2] and less than 0.1 mg/L in series [4]. Moreover, in series [7], the inhibition at 10 µg/mL is more than 80%. In series [3], this compound had a chromatographic logP of 4.32. For the same compound, the mortality at 4 ppm in series [8] (setting [9]) was determined as 80%.

Turning to `Cc1nn2c(C(C)C)c(C(=O)N[C@H]3CCc4ccccc43)cnc2c1-c1cc(Cl)cc(Cl)c1F` [Example 261], the EC50 in series [6] is less than 0.1 mg/L; in series [2], 1.58 nM; in series [4], less than 0.1 mg/L. The inhibition at 1 µg/mL in series [7] was more than 80%. Further, the inhibition at 10 µg/mL in series [7] was more than 80%. In series [3], the chromatographic logP was 5.65. Besides, the mortality at 20 ppm in series [5] was 80%.

For `Cc1nn2c(C(C)C)c(C(=O)N[C@H]3CCOc4ccccc43)cnc2c1-c1cc(Cl)cc(Cl)c1F` [Example 262], the EC50 in series [6] is less than 0.1 mg/L; in series [1] it was less than 0.1 mg/L; in series [2] it was 0.501 nM; in series [4] it was less than 0.1 mg/L. Also, the inhibition at 1 µg/mL in series [7] was more than 80%. For the same compound, in series [7], the inhibition at 10 µg/mL is more than 80%. The compound also registered a chromatographic logP in series [3] of 5.36. Besides, in series [5], the mortality at 20 ppm is 90%.

In the case of `Cc1nn2c(C(C)C)c(C(=O)N[C@H]3CCc4ccccc43)cnc2c1-c1cccc(N(C)C)c1` [Example 299], the figures for the half-maximal effective concentration (EC50) in series [2] and in series [4] were 15.8 nM and less than 0.1 mg/L, respectively. The same compound had a chromatographic logP in series [3] of 3.9. Besides, the mortality at 20 ppm in series [5] was found to be 80%.

For `Cc1nn2c(C(C)C)c(C(=O)N[C@H]3CCc4ccccc43)cnc2c1-c1cc(Cl)cc(C(F)(F)F)c1` [Example 317], the EC50 in series [6] was less than 0.1 mg/L; in series [1] it was less than 0.1 mg/L; in series [2] it was 15.8 nM; in series [4], less than 1 mg/L. Besides, the inhibition at 10 µg/mL in series [7] is more than 80%. The chromatographic logP in series [3] is 6.07.

On to `COc1cc(Cl)cc(-c2c(C)nn3c(C(C)C)c(C(=O)N[C@H]4CCOc5ccccc54)cnc23)c1` [Example 403], for which the EC50 in series [6] is less than 0.1 mg/L; in series [1] it was less than 0.1 mg/L; in series [2], 158 nM; in series [4] it was less than 0.1 mg/L. Besides, in series [7], the inhibition at 10 µg/mL is more than 80%. The same compound returned a chromatographic logP in series [3] of 4.96.

Regarding `Cc1nn2c(C3CC3)c(C(=O)N[C@H]3CCc4ccccc43)cnc2c1-c1c(F)cccc1Cl` [Example 442], the concentration for a half-maximal effect (EC50) in series [6] is less than 0.1 mg/L; in series [1], less than 0.1 mg/L; in series [2], 2 nM; in series [4], less than 0.1 mg/L. Moreover, in series [7], the inhibition at 10 µg/mL was more than 80%. This compound displayed a chromatographic logP in series [3] of 3.89.

Regarding `Cc1nn2c(C3CC3)c(C(=O)N[C@H]3CCOc4ccccc43)cnc2c1-c1cccc(N(C)C)c1` [Example 453], in series [7], the inhibition at 10 µg/mL is more than 80%. Also, the EC50 in series [2] is 2.51 nM; in series [4], less than 1 mg/L. Further, in series [3], the chromatographic logP is 2.72. The mortality at 20 ppm in series [5] stood at 80%.

As for `Cc1nn2c(C3CC3)c(C(=O)N[C@H]3CCOc4ccccc43)cnc2c1-c1c(Cl)cccc1Cl` [Example 467], the concentration for a half-maximal effect (EC50) is less than 0.1 mg/L in series [6], less than 0.1 mg/L in series [1], 0.398 nM in series [2] and less than 0.1 mg/L in series [4]. For the same compound, the inhibition at 10 µg/mL in series [7] is more than 80%. Further, the chromatographic logP in series [3] came out at 3.88.

Regarding `Cc1nn2c(C3CC3)c(C(=O)N[C@H]3CCOc4ccccc43)cnc2c1-c1cccc(Cl)c1Cl` [Example 473], the half-maximal effective concentration (EC50) was less than 0.1 mg/L in series [6], less than 0.1 mg/L in series [1], 0.501 nM in series [2] and less than 0.1 mg/L in series [4]. For the same compound, the inhibition at 1 µg/mL in series [7] is more than 80%. For the same compound, in series [7], the inhibition at 10 µg/mL is more than 80%. Besides, in series [3], the chromatographic logP was determined as 4.07. In series [5], the mortality at 20 ppm worked out at 90%.

On to `Cc1nn2c(C3CC3)c(C(=O)N[C@H]3CCOc4ccccc43)cnc2c1-c1cccc2c1CCN2C` [Example 474], for which the concentration giving a half-maximal response (EC50) in series [6] was less than 0.1 mg/L; in series [1], less than 0.1 mg/L; in series [2], 6.31 nM; in series [4], less than 1 mg/L. In addition, in series [7], the inhibition at 10 µg/mL is more than 80%. This compound also registered a chromatographic logP in series [3] of 3.25. Moreover, the mortality at 20 ppm in series [5] stood at 90%.

In the case of `Cc1nn2c(C3CC3)c(C(=O)N[C@H]3CCOc4ccccc43)cnc2c1-c1ccc(F)cc1Cl` [Example 475], the EC50 in series [6] was less than 0.1 mg/L; in series [1] it was less than 0.1 mg/L; in series [2], 2 nM; in series [4], less than 0.1 mg/L. Besides, the inhibition at 1 µg/mL in series [7] was more than 80%. In addition, in series [3], the chromatographic logP was found to be 3.79.

Consider `CCc1c(C(=O)N[C@H]2CCOc3ccccc32)cnc2c(-c3c(F)ccc(Cl)c3F)c(C)nn12` [Example 489], for which, in series [2] (CHO cells expressing C. elegans Slo-1a, voltage sensitive dye, FLIPR Tetra, negative decadic logarithm of EC50), the pE50 was 8.8. For the same compound, the “activity (percentage of larval mortality)” value in series [8] (application rate 20 ppm, after 5 days) amounted to 90%.

Regarding `Cc1nn2c(N3CCOCC3)c(C(=O)N[C@H]3CCOc4ccccc43)cnc2c1-c1cccc(C(F)(F)F)c1Cl` [Example 532], the EC50 in series [2] was 1 nM; in series [4], less than 0.1 mg/L. Also, in series [3], the chromatographic logP is 5.59. Further, the mortality at 20 ppm was 90% in series [8] (setting [9]) and 100% in series [5].

In the case of `COc1c(F)ccc(-c2c(C)nn3c(N4CCOCC4)c(C(=O)N[C@H]4CCOc5ccccc54)cnc23)c1F` [Example 533], the EC50 in series [6] is less than 0.1 mg/L; in series [1], less than 0.1 mg/L; in series [2] it was 1.26 nM; in series [4], less than 0.1 mg/L. The inhibition at 1 µg/mL in series [7] is more than 80%. The compound also gave a chromatographic logP in series [3] of 4.46.

In the case of `Cc1nn2c(C3CC3)c(C(=O)N[C@H]3CCOc4ccccc43)cnc2c1-c1cc(Cl)cc(Cl)c1Cl` [Example 538], the 50% effective concentration (EC50) was less than 0.1 mg/L in series [6], less than 0.1 mg/L in series [1], 0.316 nM in series [2] and less than 0.1 mg/L in series [4]. In addition, the inhibition at 1 µg/mL in series [7] is more than 80%. The same compound yielded a chromatographic logP in series [3] of 4.8.
